Experimental data reported in patent US4835160A, “Derivatives of pyridoindole, having anti-tumor properties” (Sanofi, priority 1986, dated 1989).
Where two headings read alike, the source gives them in different places.

Key:
[1] = in vivo; set-up: species or system CDF1 hybrid mice; conditions: mouse, ip, 50 mg/kg
Source text: The compounds of the invention benefit from a good tolerance and a weak toxicity.
Thus the administration, to healthy CDF1 hybrid mice, in a single injection by intraperitoneal route, of the compounds under test, has enabled it to be established that the product is perfectly tolerated at a high dosage since the survival rate of the animals of the experiment was 100 out of 100 thirteen days after administration.

[2] = in vivo; set-up: species or system female CDF1 hybrid mice; conditions: mouse, iv
Experimental: In addition the administration, to healthy female CDF1 hybrid mice, in a single injection by intravenous route with a perfusor, lasting 4 minutes, of the compounds under test in solution in physiological serum at a rate of 0.1 ml of solution per 10 g weight of the animals has enabled it to be established that the compounds are also well tolerated at a high dosage in these conditions.

[3] = test system: leukemia tumour line L 1210; assay: In vitro cytotoxic activity on leukemia tumour line L 1210; assay type: cell-based; conditions: L 1210, 48 hours contact, 37° C., read-out: I D 50 (concentration which inhibits the proliferation of the cells by 50%)
Experimental: (1) In vitro: ([…] et al., Chem. Biol. Interaction, 1979, 25, 45-58). The cytotoxic activity of the compounds of the invention has been evaluated by in vitro tests. These tests consist of adding increasing concentrations of the compound under test to a cellular culture of the leukemia tumour line L 1210 in an exponential phase of growth. The cellules are incubated at 37° C. in a CO2 incubator and counted every 24 hours. The calculation of the I D 50 (concentration of the product, expressed in 1^-1 micromole, which inhibits the proliferation of the cells by 50%) is made after 48 hours contact.

[4] = test system: leukemia P 388; assay: Test of leukemia P 388; IP/IP, D1-5; assay type: in vivo, CDF1 hybrid mice; conditions: D1-D5; for Number of survivors: day D30; for T/C %: survival time
Experimental: (2) In vivo: (GERAN et al., Cancer Chemother., 1972, 2, 07-57):
(§1) The antitumour activity was tested in vivo on various tumours inoculated in various ways according to the following general protocol:
(§2) All the male or female mice are inoculated on day D0 with a known quantity of viable tumour cells for ascitic tumours or with a known tumour fragment for solid tumours.
(§3) They are then distributed into various groups. Each group, corresponding to the animals treated by the product under test, is made up of 10 mice. The product under test is dissolved in distilled water and it is administered n times (Dx-Dy), n, y, and x varying according to the protocol chosen, at the rate of 0.1 ml of solution per 10 g by weight of mice treated and at specific doses for each protocol.
(§4) The "negative control" group, corresponding to the animals which are not treated by the product, contains 2√N animals, N being equal to or greater than the total number of mice treated by the product in the same experiment.
(§5) Finally, the tests can also be carried out at the same time as the study of a group called "positive control", of ten animals, which is treated by a molecule, known for its antitumour activity and which can vary according to the protocol chosen, in the same conditions as the groups treated by the product under test.
(§6) The antitumour activity is evaluated, in the case of ascitic tumours, by considering the increase in the survival time of the animals treated in comparison to that of the animals in the "negative control" group, according to the formula: [formula]
The criterion for activity varies according to the protocol.
(§7) Also, a product is considered as toxic at the dose studied when this T/C value is equal to or less than 85%. In addition, a product is also considered as toxic at the dose studied when the weight variation, expressed in grams and calculated by the formula: […]
"Average weight of the group measured on day 5--Average weight of the same group measured on day 1"
is equal to or less than 4 g.
(a) Test of lelukemia P 388; IP/IP, D1-5 (GERAN et al., Cancer Chemother., 1972, 2, 07-57).
(§8) The tests are carried out with CDF1 hybrid mice inoculated by intraperitoneal route with 10^6 leukemia cells from the P 388 line. The compound under test is administered for 5 successive days (D1-D5) by intraperitoneal route. The positive control for the test is 5-fluorouracile which is administered in the same conditions. The number of surviving animals is evaluated on day D30.

[5] = test system: melanoma B 16; assay: Test for melanoma B 16; assay type: in vivo, BDF1 hybrid mice; conditions: D1-D9; for Number of survivors: day D60; for T/C %: survival time
Experimental: as §1, §2, §3, §4, §5, §6, §7
(d) Test for melanoma B 16 (GERAN et al., Cancer Chemother., 1972, 2, 07-75).
The tests are carried out with BDF1 hybrid mice inoculated by intraperitoneal route with 0.5 ml of a homogenate of melanoma B 16 made up from 1 g of tumour in 10 ml of physiological serum. The compound under test is administered for 9 days (D1-D9) by intraperitoneal route. The positive control for the test is Cis-Platine administered in the same conditions. The number of surviving animals is evaluated on day D60.

[6] = test system: leukemia L 1210; assay: Test for leukemia L 1210 IP/D1 IV; assay type: in vivo, CDF1 hybrid mice; conditions: for Number of survivors: day D60; for T/C %: survival time
Experimental: as §1, §2, §3, §4, §5, §6, §7
as §8, with “10^5” for “10^6”, “L 1210” for “P 388”, “5” for “5 successive”, “5-fluorouracile” for “5-fluorouracile which is”, “D60.” for “D30.”
(g) Test for leukemia L 1210 IP/D1 IV. (GERAN et al., Cancer Chemother., 1972, 2, 07-57).
The test is carried out according to the same protocol as that described for test (c), the compound under test being administered by intravenous route only on day D1.

[7] = test system: leukemia P 388; assay: Test for leukemia P 388 IP/D1 IV; assay type: in vivo, CDF1 hybrid mice; conditions: for Number of survivors: day D30; for T/C %: survival time
Experimental: as §1, §2, §3, §4, §5, §6, §7, §8
(f) Test for leukemia P 388 IP/D1 IV (GERAN et al., Cancer Chemother., 1972, 2, 07-57).
The test is carried out according to the same protocol as that described for test (a), the compound under test being administered by intravenous route only on day D1.

[8] = test system: colic adenocarcinoma 38; assay: Test for colic adenocarcinoma 38, SC/D1 IV; assay type: in vivo, BDF1 hybrid mice; conditions: 50 mg/kg IV
Experimental: as §1, §2, §3, §4
(§9) the antitumour activity is evaluated, in the case of solid tumours, by considering the reduction in the average tumour volume of the treated animals in comparison with the animals of the "negative control" group, according to the formula: [formula]
(§10) A value for T/C of less than 42% indicates an activity for the product at the studied dose.
(h) Test for colic adenocarcinoma 38, SC/D1 IV. (GERAN et al., Cancer Chemother., 1972, 2, 07-57).
(§11) The tests are carried out with BDF1 hybrid mice inoculated by subcutaneous route with a standardized tumour fragment of 3 mm^3. The compound under test is administered by intravenous route only on day D1.
The number of surviving animals is evaluated on day D38.

[9] = test system: colic adenocarcinoma 38; assay: Test for colic adenocarcinoma 38, SC/D2,9 IV; assay type: in vivo, BDF1 hybrid mice; set-up: Average tumour volume at D32: unit not given beside the values; conditions: D2 and D9; for Number of survivors: day D32; for T/C % at D32: tumour volume
Experimental: as §1, §2, §3, §4, §9, §10, §11
(i) Test for colic adenocarcinoma 38, SC/D2,9 IV (GERAN et al., Cancer Chemother., 1972, 2, 07-57).
This test is carried out according to the protocol described for test (h), the compound under test being administered by intravenous route on day D2 then on day D9.
The number of surviving animals is evaluated on day D32.

In the case of CCN(CC)CCCNc1ncc(C)c2c1c1cc(O)ccc1n2C [Derivative No. 11, 1-(3-diethylaminopropylamino)-4,5-dimethyl-8-hydroxy-5H-pyrido[4,3-b]indole], the survival at 312 h [1] is reported as 100%, the survival at 192 h ([2]; 40 mg/kg) is reported as 100% and the survival at 192 h ([2]; 50 mg/kg) is reported as 100%. The IC50 ([3]; Mus musculus, L1210, 48 h) was 30 nM, the “Median day of survival” value ([4]; 2.5 mg/kg IP) was 17.25 days and the “Variation by weight (g)” value ([4]; 2.5 mg/kg IP) was “+1.2 g”. For the same compound, the Number of survivors ([4]; 2.5 mg/kg IP) was 0/10, the T/C % ([4]; 2.5 mg/kg IP) was 149% and the “Median day of survival” value ([4]; 5 mg/kg IP) was 19.25 days. The “Variation by weight (g)” value ([4]; 5 mg/kg IP) was “+0.7 g”, the Number of survivors ([4]; 5 mg/kg IP) was 0/10 and the T/C % ([4]; 5 mg/kg IP) was 166%. The “Median day of survival” value ([4]; 10 mg/kg IP) was 23.75 days, the “Variation by weight (g)” value ([4]; 10 mg/kg IP) was “+0.2 g” and the Number of survivors ([4]; 10 mg/kg IP) was 2/10. The T/C % ([4]; 10 mg/kg IP) was 205%, the “Median day of survival” value ([4]; 20 mg/kg IP) was 7.4 days and the “Variation by weight” value ([4]; 20 mg/kg IP) was -2.8 g. For the same compound, the Number of survivors ([4]; 20 mg/kg IP) was 0/10, the T/C % ([4]; 20 mg/kg IP) was 64% and the “Median day of survival” value ([5]; 1.25 mg/kg IP) was 32.25 days. For the same compound, the “Variation by weight” value ([5]; 1.25 mg/kg IP) was -2.5 g, the Number of survivors ([5]; 1.25 mg/kg IP) was 0/10 and the T/C % ([5]; 1.25 mg/kg IP) was 133%. The “Median day of survival” value ([5]; 2.5 mg/kg IP) was 35.25 days, the “Variation by weight (g)” value ([5]; 2.5 mg/kg IP) was “+0.6 g” and the Number of survivors ([5]; 2.5 mg/kg IP) was 0/10. For the same compound, the T/C % ([5]; 2.5 mg/kg IP) was 145%, the “Median day of survival” value ([5]; 5 mg/kg IP) was 41.25 days and the “Variation by weight (g)” value ([5]; 5 mg/kg IP) was “+0.2 g”. For the same compound, the Number of survivors ([5]; 5 mg/kg IP) was 3/10, the T/C % ([5]; 5 mg/kg IP) was 170% and the “Median day of survival” value ([5]; 10 mg/kg IP) was 19.3 days. For the same compound, the “Variation by weight” value ([5]; 10 mg/kg IP) was -1.0 g, the Number of survivors ([5]; 10 mg/kg IP) was 0/10 and the T/C % ([5]; 10 mg/kg IP) was 79%. For the same compound, the “Median day of survival” value ([6]; 20 mg/kg IV) was 11.8 days, the “Variation by weight” value ([6]; 20 mg/kg IV) was -0.4 g and the Number of survivors ([6]; 20 mg/kg IV) was 0/10. For the same compound, the T/C % ([6]; 20 mg/kg IV) was 132%, the “Median day of survival” value ([6]; 40 mg/kg IV) was 13.3 days and the “Variation by weight” value ([6]; 40 mg/kg IV) was -0.2 g. The Number of survivors ([6]; 40 mg/kg IV) was 0/10 and the T/C % ([6]; 40 mg/kg IV) was 149%.

In the case of Cc1cnc(NCCCN(C)C)c2c3cc(O)ccc3n(C)c12 [Derivative No. 15, 4,5-dimethyl 1(3-dimethylaminopropylamino)-8-hydroxy-5H-pyrido[4,3-b]indole], the IC50 [3] is reported as 10 nM, the “Median day of survival” value ([4]; 1.25 mg/kg IP) is reported as 18.0 days and the “Variation by weight” value ([4]; 1.25 mg/kg IP) is reported as -1.9 g. The Number of survivors ([4]; 1.25 mg/kg IP) was 0/10, the T/C % ([4]; 1.25 mg/kg IP) was 164% and the “Median day of survival” value ([4]; 2.5 mg/kg IP) was 20.25 days. The “Variation by weight” value ([4]; 2.5 mg/kg IP) was -1.9 g, the Number of survivors ([4]; 2.5 mg/kg IP) was 0/10 and the T/C % ([4]; 2.5 mg/kg IP) was 184%. The “Median day of survival” value ([4]; 5 mg/kg IP) was 26 days, the “Variation by weight” value ([4]; 5 mg/kg IP) was -2.5 g and the Number of survivors ([4]; 5 mg/kg IP) was 1/10. The T/C % ([4]; 5 mg/kg IP) was 236%, the “Median day of survival” value ([4]; 10 mg/kg IP) was 9.3 days and the “Variation by weight” value ([4]; 10 mg/kg IP) was -4.1 g. The Number of survivors ([4]; 10 mg/kg IP) was 0/10, the T/C % ([4]; 10 mg/kg IP) was 85% and the “Median day of survival” value ([7]; 50 mg/kg IV) was 17.75 days. The “Variation by weight (g)” value ([7]; 50 mg/kg IV) was “+0.5 g”, the Number of survivors ([7]; 50 mg/kg IV) was 1/10 and the T/C % ([7]; 50 mg/kg IV) was 163%. The “Median day of survival” value ([7]; 100 mg/kg IV) was 25.75 days, the “Variation by weight” value ([7]; 100 mg/kg IV) was -0.25 g and the Number of survivors ([7]; 100 mg/kg IV) was 4/10. The T/C % ([7]; 100 mg/kg IV) was 236%, the “Average tumour volume at D38” value [8] was 2.73 and the Number of survivors ([8]; day D38) was 10/10. The “T/C % at D38” value ([8]; tumour volume) was 30%, the “Average tumour volume at D32” value ([9]; 25 mg/kg IV) was 0.0 and the Number of survivors ([9]; 25 mg/kg IV) was 10/10. The “T/C % at D32” value ([9]; 25 mg/kg IV) was 0%, the “Average tumour volume at D32” value ([9]; 50 mg/kg IV) was 0.0 and the Number of survivors ([9]; 50 mg/kg IV) was 10/10. The “T/C % at D32” value ([9]; 50 mg/kg IV) was 0%.
